Values of other authors as cited in patent publication US20050013858A1, “Oral pharmaceutical compositions containing terbinafine” (priority 2001, published 2005).

Key:
CYP2D6 = CYP2D6 (Homo sapiens, UniProt P10635)
[1] = steady state, in comparison to the single dose

Sequence of CYP2D6 (P10635 whole entry): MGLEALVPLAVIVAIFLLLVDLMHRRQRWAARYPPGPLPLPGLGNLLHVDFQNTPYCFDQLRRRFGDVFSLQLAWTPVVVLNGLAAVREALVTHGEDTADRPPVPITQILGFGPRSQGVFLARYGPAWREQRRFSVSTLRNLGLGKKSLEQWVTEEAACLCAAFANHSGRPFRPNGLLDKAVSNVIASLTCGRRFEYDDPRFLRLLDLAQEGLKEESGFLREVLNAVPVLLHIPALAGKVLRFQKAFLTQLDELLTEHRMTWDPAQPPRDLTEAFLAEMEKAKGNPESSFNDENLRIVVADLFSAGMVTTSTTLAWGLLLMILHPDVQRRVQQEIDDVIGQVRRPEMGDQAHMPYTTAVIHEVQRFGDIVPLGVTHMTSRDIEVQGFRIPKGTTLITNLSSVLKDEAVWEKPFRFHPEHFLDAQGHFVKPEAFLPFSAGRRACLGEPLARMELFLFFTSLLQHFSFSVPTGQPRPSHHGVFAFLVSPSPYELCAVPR

Compound: CN(C/C=C/C#CC(C)(C)C)Cc1cccc2ccccc12 [terbinafine]
- inhibition of CYP2D6 (CYP2D6): potent inhibitor
- increase in AUC (administered with a fat-rich meal): 42%
- effective half-life (in vivo): ca. 36 hours
- reduction of clearance (patients with renal impairment (creatinine clearance ≤50 ml/min) or hepatic cirrhosis): approximately 50%
- area under the curve over 24 hours (AUC) (single 250 mg terbinafine dose): about 4.76 microgram.hour/millilitre
- factor of AUC increase in steady state versus single dose [1]: 2.5
- increase of Cmax in steady state versus single dose [1]: 25%
